Experimental data as given in BindingDB's records for doi:10.7270/Q2Q52N82 (The Scripps Research Institute Molecular Screening Center, 2012).

Biological target: ADP-ribosylation factor GTPase-activating protein 1 (Rattus norvegicus, UniProt Q62848)
Sequence (Q62848 whole entry): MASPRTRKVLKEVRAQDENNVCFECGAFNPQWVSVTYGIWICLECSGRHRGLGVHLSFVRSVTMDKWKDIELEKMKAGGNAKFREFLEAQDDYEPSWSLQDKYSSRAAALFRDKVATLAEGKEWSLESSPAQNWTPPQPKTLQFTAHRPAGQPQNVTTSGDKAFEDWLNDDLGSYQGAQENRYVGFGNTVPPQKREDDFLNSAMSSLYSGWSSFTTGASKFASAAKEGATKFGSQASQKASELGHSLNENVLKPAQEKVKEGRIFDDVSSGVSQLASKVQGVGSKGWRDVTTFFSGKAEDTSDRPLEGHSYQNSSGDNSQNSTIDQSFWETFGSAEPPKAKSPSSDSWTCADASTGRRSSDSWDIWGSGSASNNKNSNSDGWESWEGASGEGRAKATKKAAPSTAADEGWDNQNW

Compound | IC50 [µM]
CCC(/C=C1\Sc2ccc(OC)cc2N1CCO)=C\c1sc2ccc(OC)cc2[n+]1CCO | > 165
CC(C)=CCC/C(C)=C/Cc1c(O)ccc(C(=O)/C=C/c2ccc(O)cc2)c1O | > 165
Cc1ccc2nc(SCC(=O)c3ccc(Cl)cc3)nc(=O)n2c1 | > 165
c1ccc(-c2cc(-c3nnc4sc(-c5ccccn5)nn34)[nH]n2)cc1 [3-(3-phenyl-1H-pyrazol-5-yl)-6-(2-pyridinyl)-[1,2,4]triazolo[3,4-b][1,3,4]thiadiazole] | > 165
O=C(Nc1ccc(CN2CCOCC2)cc1)c1ccc(-c2cc(Cl)ccc2Cl)o1 [5-(2,5-dichlorophenyl)-N-[4-(4-morpholinylmethyl)phenyl]-2-furamide] | > 165
C=c1cc2[nH]c(=O)c(=Cc3ccc(-c4cccc(Cl)c4)o3)c(=N)n2o1 [(6Z)-6-[[5-(3-chlorophenyl)-2-furanyl]methylidene]-7-imino-2-methyl-5-isoxazolo[2,3-a]pyrimidinone] | > 2.03
C=CCNc1nc(NCc2cccc(OC)c2)c2sc(-c3ccccc3)cc2n1 [N4-[(3-methoxyphenyl)methyl]-6-phenyl-N2-prop-2-enyl-thieno[3,2-d]pyrimidine-2,4-diamine] | > 165
COc1ccc(-c2cc3ccccc3oc2=O)cc1NC(=O)c1cccnc1 [N-[2-methoxy-5-(2-oxidanylidenechromen-3-yl)phenyl]pyridine-3-carboxamide] | > 165
CCOc1ccc2oc(C(=O)OCC(=O)N3CC(C)OC(C)C3)c(C)c2c1 (stereo not given) [[2-(2,6-dimethylmorpholin-4-yl)-2-oxoethyl] 5-ethoxy-3-methyl-1-benzofuran-2-carboxylate] | > 165
CC1CC(C)CN(C(=O)COC(=O)c2cc3ccccc3cc2O)C1 (stereo not given) [[2-(3,5-dimethylpiperidin-1-yl)-2-oxidanylidene-ethyl] 3-oxidanylnaphthalene-2-carboxylate] | > 165

The remaining lines, values ahead:

IC50 [µM] | Compound
> 18.3 | Cc1ccc2nc(SCC(=O)Nc3cccc(Cl)c3)nc(=O)n2c1 [MLS001234985]
> 165 | COCC(C)n1c(C)cc(C(=O)CN2c3cccc4cccc(c34)S2(=O)=O)c1C (stereo not given) [MLS002169376]
> 165 | CC(=O)c1cccc(NC(=O)c2cccc3c(-c4cnn(C)c4)coc23)c1 [MLS003120506]
> 18.3 | CN(C)CCNC(=O)c1ccc(-c2cn3c(-c4ccc(Oc5ccccc5)cc4)cnc3cn2)cc1 [MLS003123272]
50.7 | O=NCc1ccc2noc(-c3ccc(Cl)cc3)c2c1 [SMR000549694]
